From US7524862B2 (Boehringer Ingelheim International GmbH, priority 2004, dated 2009)

Molecular target: T1, human hMCH-1R (Homo sapiens, UniProt Q99705)
T1 construct: expressed in transfected cells; host or cells: CHO/Galpha16 cells (stably transfected), membranes
Assay: MCH-1 receptor binding test
Settings: membranes from CHO/Galpha16 cells stably transfected with hMCH-1R; 125I-MCH
Description: Membranes from CHO/Galpha16 cells stably transfected with human hMCH-1R are resuspended using a syringe (needle 0.6×25 mm) and diluted in test buffer (50 mM HEPES, 10 mM MgCl2, 2 mM EGTA, pH 7.00; 0.1% bovine serum albumin (protease-free), 0.021% bacitracin, 1 μg/mL aprotinin, 1 μg/mL leupeptin and 1 μM phosphoramidone) to a concentration of 5 to 15 μg/mL. […] After the incubation, the reaction is filtered using a cell harvester through 0.5% PEI treated fiberglass filters (GF/B, Unifilter Packard). The membrane-bound radioactivity retained on the filter is then determined after the addition of scintillator substance (Packard Microscint 20) in a measuring device (TopCount of Packard). […] The analysis of the concentration binding curve is carried out on the assumption of one receptor binding site.

T1 sequence (Q99705 whole entry): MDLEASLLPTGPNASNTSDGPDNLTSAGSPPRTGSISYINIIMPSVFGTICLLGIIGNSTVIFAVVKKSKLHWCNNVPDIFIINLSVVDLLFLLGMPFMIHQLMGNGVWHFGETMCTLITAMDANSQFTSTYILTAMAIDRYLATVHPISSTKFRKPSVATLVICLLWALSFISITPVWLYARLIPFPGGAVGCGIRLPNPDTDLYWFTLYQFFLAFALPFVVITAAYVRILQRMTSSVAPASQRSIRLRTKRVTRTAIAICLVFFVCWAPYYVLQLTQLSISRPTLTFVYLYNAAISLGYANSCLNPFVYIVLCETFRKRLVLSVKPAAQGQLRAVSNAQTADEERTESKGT

Cc1cc(N2CCC(C)CC2)nc2ccc(C#Cc3ccc(-c4ccc(Cl)cc4)cn3)cc12 [Example 1.43, 6-[5-(4-chlorophenyl)pyridin-2-ylethynyl]-4-methyl-2-(4-methylpiperidin-1-yl)quinoline]
IC50: 246 nM

Cc1cc(NC(C)C)nc2ccc(C#Cc3ccc(-c4ccc(Cl)cc4)cn3)cc12 [Example 1.44, {6-[5-(4-chlorophenyl)pyridin-2-ylethnyl]-4-methylquinolin-2-yl}isopropylamine]
IC50: 6.8 nM
